In the assay the test system is fungal tyrosinase. Put plainly: in vitro inhibition of the activity of fungal tyrosinase (absorbance at 475 nm). In kind it is biochemical. The settings on record: for molar concentration for which an inhibition value of 25% is observed: compound dissolved in ethanol, phosphate buffer, L-tyrosine and L-Dopa substrates, OD 475 nm. How it is done: This test involves in measuring the absorbance (optical density OD) at 475 nm as a function of time for the hydroquinone dissolved (at various concentrations) in ethanol in the presence of a phosphate buffer, 1 ml of L-tyrosine at 2.0×10^−3 M in a phosphate buffer, 0.1 ml of L-Dopa at 1.0×10^−4 M in a phosphate buffer and 50 μl of a solution of fungal tyrosinase at 1 g/l in a phosphate buffer, compared with a control consisting of ethanol (solvent) used at the same concentration in the phosphate buffer.
The percentage of inhibition is determined by the following equation: [formula]
The molar concentration of hydroquinone for which an inhibition value of 25% is observed is then determined.
The test described in Example 1 above is used, except that N-ethyloxycarbonyl-4-para-aminophenol was substituted for N-cholesteryloxycarbonyl-4-para-aminophenol.

The structures appear in SMILES notation.

On to `CCOC(=O)Nc1ccc(O)cc1` [N-ethyloxycarbonyl-4-para-aminophenol], for which the “molar concentration for which an inhibition value of 25% is observed” value was 125 µM. On the same count and under the same terms, under `Oc1ccc(O)cc1` [hydroquinone] stands 80 µM. In the case of `CC(C)CCC[C@@H](C)[C@H]1CC[C@H]2[C@@H]3CC=C4C[C@@H](OC(=O)Nc5ccc(O)cc5)CC[C@]4(C)[C@H]3CC[C@]12C` [N-cholesteryloxycarbonyl-4-para-aminophenol], where the note is “compound alone at C2=6.77×10^−5 M (solubility limit in DMSO)”, the inhibition of tyrosinase entry is given as “no inhibition”.
